Laboratory results: BigSolDB 2.1

CCc1ccc2c(c1)C(=O)c1ccccc1C2=O
solubility (mole fraction)
Conditions	304.15 K	309.15 K	314.15 K	319.15 K	324.15 K	329.15 K	334.15 K	339.15 K	344.15 K
in 2-methyl-cyclohexyl acetate	0.0752	0.0907	0.104	0.127	0.145	0.171	0.199	0.232	0.268
in 2-phenylethanol	0.107	0.127	0.15	0.176	0.21	0.248	0.288	0.334	0.385
in DMAc	0.0943	0.113	0.131	0.156	0.184	0.214	0.248	0.287	0.336
in DMF	0.107	0.126	0.153	0.176	0.21	0.245	0.283	0.335	0.388
in acetophenone	0.138	0.163	0.185	0.21	0.238	0.274	0.315	0.356	0.397
in diglyme	0.165	0.191	0.216	0.244	0.275	0.314	0.357	0.401	0.444
in diisobutyl methanol	0.0441	0.0536	0.0651	0.0787	0.0973	0.116	0.139	0.163	0.199
in dioctyl adipate	0.0657	0.0773	0.0899	0.107	0.129	0.152	0.18	0.209	0.242
in mesitylene	0.139	0.159	0.184	0.209	0.234	0.264	0.296	0.329	0.371
in styrene	0.0944	0.112	0.132	0.153	0.182	0.212	0.248	0.285	0.335
in tetrabutyl urea	0.0531	0.0644	0.0785	0.0947	0.116	0.139	0.17	0.197	0.24
in trioctyl phosphate	0.0569	0.0678	0.0792	0.0959	0.114	0.135	0.155	0.182	0.22
